How the values were obtained:
Alternaria alternata = experiment: Cell test on Alternaria alternata; assay type: cell-based; conditions: under similar conditions (2 ppm, OD at 620 nm after 5 days)
Protocol: The growth of Alternaria alternata is performed on PDA medium at 20° C. under black light during 14 days. The PDA medium is prepared by mixing 39 grams of PDA (Merck) in 1 liter of demineralized water.
The medium is sterilized by autoclave 15 minutes at 121° C. After 14 days of growth, the spores of Alternaria alternata are recovered in sterilized water and the concentration of spores adjusted at 10^6 spores per ml.
The compounds is solubilized in DMSO and added to sterile liquid glucose/mycopeptone medium (14.6 g/l of D-glucose, 7.1 g/l of mycological peptone (Oxoid) and 1.4 g/l of yeast extract (Merck)) at a concentration of 2 ppm. The medium is inoculated with the spore suspension at a concentration of 10^5 spores per ml.
The efficacy of the compounds is assessed by OD measurement at 620 nm after 5 days at 20° C. in comparison with a control.

Pyrenophora teres = experiment: In vivo test on Pyrenophora teres (barley net blotch); conditions: barley plants, preventive spray, dose of 330 ppm, grading 12 days after contamination
Protocol: The active ingredients tested are prepared by homogenization in a mixture of acetone/tween/DMSO, then diluted with water to obtain the desired active material concentration.
Barley plants (Express variety), sown on a 50/50 peat soil-pozzolana substrate in starter cups and grown at 12° C., are treated at the 1-leaf stage (10 cm tall) by spraying with the active ingredient prepared as described above. Plants, used as controls, are treated with the mixture of acetone/tween/DMSO/water not containing the active material.
After 24 hours, the plants are contaminated by spraying them with an aqueous suspension of Pyrenophora teres spores (12,000 spores per ml). The spores are collected from a 12-day-old culture. The contaminated barley plants are incubated for 24 hours at about 20° C. and at 100% relative humidity, and then for 12 days at 80% relative humidity.
Grading is carried out 12 days after the contamination, in comparison with the control plants.

| Structure (SMILES) | activity (Alternaria alternata) | protection (Pyrenophora teres) |
| --- | --- | --- |
| O=C(NOCc1ncc(C(F)(F)F)cc1Cl)c1c(F)cccc1F [N-{[3-chloro-5-(trifluoromethyl)pyridin-2-yl]methoxy}-2,6-difluorobenzamide] | did not show any activity |  |
| O=C(NOCc1ncc(C(F)(F)F)cc1Cl)c1c(Cl)cccc1Cl [2,6-dichloro-N-{[3-chloro-5-(trifluoromethyl)pyridin-2-yl]methoxy}benzamide] | did not show any activity |  |
| Cc1ccsc1C(=O)NOCc1ncc(C(F)(F)F)cc1Cl [Compound C-1, N-{[3-chloro-5-(trifluoromethyl)pyridin-2-yl]methoxy}-3-methylthiophene-2-carboxamide] |  | at least 70% |
| O=C(NCCc1ccccn1)c1nccc(-n2ccnc2)c1O [3-hydroxy-4-(1H-imidazol-1-yl)-N-(2-pyridin-2-ylethyl)pyridine-2-carboxamide] | did not show any activity |  |
